Experimental data reported in patent US7368582B2, “Amidomethyl-substituted 2-(4-sulfonylamino)-3-hydroxy-3,4-dihydro-2H-chromen-6-yl compounds, a process and intermediates for their production, and pharmaceutical compositions containing them” (Solvay Pharmaceuticals GmbH, priority 2003, dated 2008).

Tests used:
Kv 1.5-potassium channel = target: T1, Kv 1.5-potassium channel (Homo sapiens, UniProt P22460); test: In-vitro Kv 1.5-potassium channel-blocking effect (Rb+ outflow from CHO cells, atomic absorption spectroscopy); type: cell-based; conditions: CHO cells stably expressing Kv 1.5, read-out: IC50 (Kv1.5-potassium channel-blocking effect, concentration of half-maximum inhibition)
T1 construct: expressed in transfected cells
T1 sequence (P22460 whole entry): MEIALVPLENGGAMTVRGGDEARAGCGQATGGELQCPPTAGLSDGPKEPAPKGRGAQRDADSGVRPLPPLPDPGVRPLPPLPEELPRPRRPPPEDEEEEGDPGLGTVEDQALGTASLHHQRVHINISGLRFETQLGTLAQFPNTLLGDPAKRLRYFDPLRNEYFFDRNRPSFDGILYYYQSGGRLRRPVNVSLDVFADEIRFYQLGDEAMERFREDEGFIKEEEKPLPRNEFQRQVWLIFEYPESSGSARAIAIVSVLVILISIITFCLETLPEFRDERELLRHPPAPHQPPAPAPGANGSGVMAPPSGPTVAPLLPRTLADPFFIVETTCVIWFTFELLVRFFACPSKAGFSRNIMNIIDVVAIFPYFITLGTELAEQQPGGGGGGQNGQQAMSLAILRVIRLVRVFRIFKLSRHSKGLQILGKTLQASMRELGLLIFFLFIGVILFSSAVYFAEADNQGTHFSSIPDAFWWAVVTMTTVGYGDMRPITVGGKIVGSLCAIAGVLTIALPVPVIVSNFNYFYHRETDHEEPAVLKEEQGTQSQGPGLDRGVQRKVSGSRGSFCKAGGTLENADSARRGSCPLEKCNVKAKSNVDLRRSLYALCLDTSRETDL
Method: 1. In-Vitro Investigation of the Kv 1.5-Potassium Channel-Blocking Effect of the Substances
In this test model, a cell line of egg cells of the Chinese hamster (=“Chinese hamster oocytes”, “CHO”) is used which originates from a single cell and stably expresses the Kv 1.5-channel. By incubation overnight in a nutrient medium containing RbCl or a “loading buffer” (all values in mM: RbCl 5, NaCl 140, CaCl2 2, MgSO4 1, HEPES buffer 10, glucose 5) the aforementioned oocytes are loaded with Rb^+ under the influence of Na^+/K^+-ATPase. Thereafter, a portion of the oocytes is incubated as a reference standard in the absence of an inhibitor, while another portion of the oocytes is incubated in the presence of the respective inhibitory test substance of Formula I. Then the oocytes are depolarized by increasing the extracellular potassium-ion concentration, which causes the Kv 1.5-potassium channels of the oocytes to open. In the absence of an inhibitor, the Rb^+ ions flow through the Kv 1.5-potassium channels into the liquid surrounding them. In the presence of an inhibitory test substance of Formula I, on the other hand, the Rb^+ ions remain locked within the oocytes. The extent of the Kv 1.5-potassium channel-blocking effect of the test substances of Formula I is determined by measuring the Rb^+ ion concentration in the liquid surrounding them by means of atomic absorption spectroscopy against a reference standard.
Chinese hamster oocytes (see above) were cultivated in a known, RbCl-containing nutrient medium for CHO-cells and placed in the sample wells of a 96-sample capacity sample plate (“96 well plate”). The oocytes were allowed to grow overnight in order to obtain monolayers of the oocytes. Then the nutrient medium was pipetted off, and each sample well was washed three times with 100 μl portions of a preincubation buffer of low potassium-ion concentration (all values in mM: KCl 5, NaCl 140, CaCl2 2, MgSO4 1, HEPES buffer 10, glucose 5). Then 50 μl of a solution of the respective test substance (stock solution in DMSO, dilution with preincubation buffer, final concentration in the test batch 10 μM) or of the solvent (as negative controls) was added to each sample well and incubated for 10 min. in each case at room temperature. Then 50 μl of a stimulation buffer with elevated potassium-ion concentration (KCl 145 mM, NaCl 0 mM, otherwise as preincubation buffer) was added to each sample well and the samples were then incubated for a further 10 min. at room temperature. In each case, 80 μl of the liquid surrounding the oocytes from each sample well was then transferred separately to the sample wells of an analysis sample plate, and the Rb^+ ion concentration in the liquids was determined by atomic absorption spectroscopy. The test substances were each double-tested. The signal section which represented the Kv 1.5 component of the Rb^+ outflow was defined by using as positive control the known potassium channel blocker 4-AP in a high concentration (100×IC50 for the Kv 1.5 channel). This made it possible to determine which portion of the Rb^+ outflow was dependent on the influence of the 4-AP and therefore is to be assigned to the Kv 1.5 channel. For the substances which in the concentration of 10 μM used led to a reduction in the Rb^+ outflow of at least 50%, additional tests were performed with lower concentrations of the test substances in order to be able to determine the half-maximum effective concentration. In each case the concentration of half-maximum inhibition of the test substances of Formula I (IC50) was given as characteristic variable.

Kv 1.3-potassium channel = target: T2, Kv 1.3-potassium channel (Homo sapiens, UniProt P22001); test: In-vitro Kv 1.3-potassium channel-blocking effect (membrane potential-sensitive fluorescent dye in transfected CHO cells); type: cell-based; conditions: 10 μM test substance; CHO cells transfected with Kv 1.3; relative to reference margatoxin
T2 construct: expressed in transfected cells; host or cells: CHO cells, stably transfected with the Kv 1.3 plasmid using DMRIE-C
T2 sequence (P22001 whole entry): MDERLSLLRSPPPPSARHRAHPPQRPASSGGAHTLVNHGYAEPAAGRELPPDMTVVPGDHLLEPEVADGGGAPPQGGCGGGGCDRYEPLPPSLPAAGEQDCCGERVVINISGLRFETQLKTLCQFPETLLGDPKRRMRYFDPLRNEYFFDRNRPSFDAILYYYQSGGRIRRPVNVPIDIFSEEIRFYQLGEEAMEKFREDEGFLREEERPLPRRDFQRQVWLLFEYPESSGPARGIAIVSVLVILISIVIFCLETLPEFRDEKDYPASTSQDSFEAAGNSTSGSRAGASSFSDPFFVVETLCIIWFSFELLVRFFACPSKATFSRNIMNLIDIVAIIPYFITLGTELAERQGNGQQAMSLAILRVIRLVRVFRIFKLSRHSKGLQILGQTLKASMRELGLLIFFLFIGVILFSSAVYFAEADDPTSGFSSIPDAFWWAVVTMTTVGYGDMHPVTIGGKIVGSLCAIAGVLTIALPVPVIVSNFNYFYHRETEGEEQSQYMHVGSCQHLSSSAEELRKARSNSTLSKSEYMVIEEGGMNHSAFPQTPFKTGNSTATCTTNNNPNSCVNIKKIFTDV
From the text: 2. In-Vitro Investigation of the Kv 1.3-Potassium Channel-Blocking Effect of the Substances
In this test model, known oocytes of the Chinese hamster (═CHO) are used which are stably transfected with the Kv 1.3-potassium channel. The blockade of the cell-inherent Kv 1.3-potassium channel activity in the transfected cells is accompanied by a positive shift in the membrane potential from approx. −40 mV to −30 mV, whereas in the wild-type CHO cells investigated in parallel no significant shift in the membrane potential is triggered. A change in the membrane potential is thus connected to the reduction in the Kv 1.3-potassium channel activity. By blocking the Kv 1.3-potassium channels e.g. with substances of Formula I and the resulting change in the membrane potential, an accumulation of a membrane potential-sensitive fluorescent dye in intracellular compartments of the oocytes and ultimately increasing fluorescence occurs. The change in the membrane potential of the oocytes is therefore measured indirectly via the increase in fluorescence of the membrane potential-senstive dyes.
The cells were transfected with the Kv 1.3 plasmid in known manner with a commercially obtainable transfection reagent (DMRIE-C from Gibco BRL, Germany). The successful transfection was verified by immunofluorescence and by “patch-clamp” investigations of the potassium ion current. The fluorescence measurements were performed on a Tecan Safire fluorescence reader from Tecan, Germany. In each case, the increase in the fluorescent intensity caused by the blockade of the Kv 1.3-potassium channels in the oocytes with substances of Formula I in a concentration of 10 μM was determined as characteristic variable. The increase in the fluorescent intensity was given in each case in percent (%) compared with an increase in the fluorescent intensity caused by the reference substance margatoxin. Margatoxin is known as a selective Kv 1.3-potassium channel blocker (see e.g. M. Garcia-Calvo et al., J. Biol. Chem. 268 (1993) 18866-18874).

[1] = system: hearts of anaesthetised cats; test: Atrial and ventricular fibrillation threshold in anaesthetised cats in vivo; design: species or system cat; conditions: anaesthetized cats, dose 30 μmol/kg i.v.; for AFT (increase in the atrial fibrillation threshold) / VFT (increase in the ventricular fibrillation threshold): percent of value before administration
From the text: 5. Investigation of the Functional Effectiveness of the Substances on the Hearts of Anaesthetised Cats in Vivo
In the test model shown below, it was shown that the substances according to the invention at most have a marked atrial-selective effect on the heart. After administration of the substances according to the invention, a significant increase in the atrial fibrillation threshold—i.e. the current intensity at which atrial fibrillation occurs—was observed. At the same time, on the other hand, the ventricular fibrillation threshold is influenced only minimally.
Living cats were anaesthetised with chloralose/urethane (50/300 mg/kg i.v.) and were ventilated with ambient air. Then, following thoracotomy, stimulating electrodes were attached to the right atrium and the ventricle. The atrial and ventricular fibrillation threshold was determined in known manner by administration of rectangular pulses of increasing current intensity until atrial or ventricular fibrillation occurred (for performance see in detail: Br. J. Pharmac. 17 (1961) 167; Hdb. exp. Pharmacol. XVI/3 (1975) 131; Pharmacol. Res. 25 Suppl. 2 (1992) 156). The test substances of Formula I were dissolved in propylene glycol (80%) and administered intravenously in increasing doses (5-30 μmol/kg). Atrial and ventricular fibrillation thresholds were then determined at 5-minute intervals in known manner after the addition of the respective dose. The increase in the respective fibrillation threshold due to the substances investigated was expressed in percent of the value before administration of substance, i.e. a doubling of the fibrillation threshold corresponds to an increase of 100%.

Compound	IC50 (Kv 1.5-potassium channel) [µM]	Increase in the fluorescent intensity (% margatoxin) (Kv 1.3-potassium channel)	Selectivity factor (AFT:VFT) [1]	AFT (increase in the atrial fibrillation threshold) [1] [%]	VFT (increase in the ventricular fibrillation threshold) [1] [%]
CC1(C)Oc2ccc(CC(=O)NC3CCCc4ccccc43)cc2C(NS(=O)(=O)c2cccc(F)c2)C1O (mixture of isomers) [Example 13]	6.5	53			
CCc1ccc(S(=O)(=O)N[C@@H]2c3cc(CC(=O)N[C@@H]4CCCc5ccccc54)ccc3OC(C)(C)[C@H]2O)cc1 [Example 2, 2-((3S,4R)-4-{[(4-ethylphenyl)sulfonyl]amino}-3-hydroxy-2,2-dimethyl-3,4-dihydro-2H-chromen-6-yl)-N-[(1R)-1,2,3,4-tetrahydronaphth-1-yl]acetamide]	2	72	17	261	15
CCc1ccc(S(=O)(=O)N(CC(C)(C)C)C2c3cc(CC(=O)NCc4ccccc4)ccc3OC(C)(C)C2O)cc1 (stereo not drawn) [Example 4, N-benzyl-2-{4-[[(4-ethylphenyl)sulfonyl](neopentyl)amino]-3-hydroxy-2,2-dimethyl-3,4-dihydro-2H-chromen-6-yl}acetamide]	1.6		12	226	19
CCc1ccc(S(=O)(=O)N(CC(C)(C)C)[C@@H]2c3cc(CC(=O)NCc4ccccc4)ccc3OC(C)(C)[C@H]2O)cc1 [Example 7]	1.5				
CCc1ccc(S(=O)(=O)N(CC(C)(C)C)[C@H]2c3cc(CC(=O)NCc4ccccc4)ccc3OC(C)(C)[C@@H]2O)cc1 [Example 8]	0.5				
CCc1ccc(S(=O)(=O)N[C@@H]2c3cc(CC(=O)N[C@H]4CCCc5ccccc54)ccc3OC(C)(C)[C@H]2O)cc1 [Example 9]	2.9	107	7	213	29
CCc1ccc(S(=O)(=O)N(CC(C)(C)C)C2c3cc(CC(=O)NCCc4ccccc4)ccc3OC(C)(C)C2O)cc1 (stereo not drawn) [Example 10]	1.6	82	13	241	19
CCc1ccc(S(=O)(=O)NC2c3cc(CC(=O)N4CCN(c5ccccc5)CC4)ccc3OC(C)(C)C2O)cc1 (stereo not drawn) [Example 16]	6.3				
